According to patent publication US10138230B2, “Autotaxin inhibitors” (CANCER RESEARCH TECHNOLOGY LIMITED, priority 2015, dated 2018):
Structures can show the parent of a compound that is named as a salt.

Target: human recombinant ATX (Homo sapiens (Human), UniProt Q13822)
Test: Autotaxin (ATX) activity Quanta Red assay
Assay type: biochemical
Details: 15 μM Rac-1-Palmitoyl-glycero-3-phosphocholine, 2 hours room temperature, determined in duplicate
Protocol: The ATX enzyme assay (Quanta Red assay) described in accompanying Example section may be used to measure the pharmacological effects of the compounds of the present invention.
Autotaxin (ATX) Activity Quanta Red Assay
Measuring ATX activity using an enzyme coupled Quanta Red assay (Thermo Scientific—Pierce Protein Research Products, Product #15159) was determined as follows. 8 μL human recombinant ATX (final concentration 0.8 μg/mL) in 1× Assay buffer containing 50 mM Tris-HCl (pH 8.0), 5 mM CaCl2 was added to an opaque black flat-bottom 384-well plate (Corning, #3575) containing 2 μL test compound in 40% DMSO (4% final DMSO concentration). 10 μL of Quanta Red, Horseradish peroxidase (HRP), Choline Oxidase (CO), Rac-1-Palmitoyl-glycero-3-phosphocholine solution (final concentration 1:250 for Quanta Red, 0.5units/ml HRP, 0.5units/ml CO, 15 μM Rac-1-Palmitoyl-glycero-3-phosphocholine) in 1× assay buffer (as described previously) was added to each well to start the reaction and the plate was incubated at room temperature for 2 hours. The reaction was stopped after 2 hours with a 20 μL addition of Quanta Red Stop solution (1:20 dilution in distilled water). The above-described mixture with DMSO alone was used as a positive control whereas that with DMSO alone without ATX was taken as a negative control.
For each test compound, ten concentrations were measured covering a range of 6.1 nM to 120 μM to determine IC50 values. The top concentration was decreased to 1.2 μM when a test compound's IC50 value was evaluated in low nanomolar range. Fluorescence was determined in a BMG Labtech Pherastar plus plate reader ([…]). Data were analysed using Excel fit software. IC50 values were determined in duplicate.

Going from `O=C(Nc1nnc(CCc2ccc(Cl)cc2)s1)C1CC(=O)N(c2ccc(CN3CC4CC4C3)cc2)C1` (stereo not drawn) [Compound F110, 1-[4-(3-azabicyclo[3.1.0]hexan-3-ylmethyl)phenyl]-N-[5-[2-(4-chlorophenyl)ethyl]-1,3,4-thiadiazol-2-yl]-5-oxo-pyrrolidine-3-carboxamide] to `O=C(Nc1nnc(CCc2ccc(Cl)cc2)s1)[C@@H]1CC(=O)N(c2ccc(CN3CCCCC3)cc2)C1` [Compound F163, (3R)-N-[5-[2-(4-chlorophenyl)ethyl]-1,3,4-thiadiazol-2-yl]-5-oxo-1-[4-(1-piperidylmethyl)phenyl] pyrrolidine-3-carboxamide], the IC50 rises from 3 nM to 49 nM (16-fold). The first is the more potent here.

`CC(C)(O)CCNCc1ccc(N2C[C@H](NC(=O)c3nnc(CCc4ccc(Cl)cc4)s3)CC2=O)cc1` [Compound F170, 5-[2-(4-chlorophenyl)ethyl]-N-[(3R)-1-[4-[[(3-hydroxy-3-methyl-butyl)amino]methyl]phenyl]-5-oxo-pyrrolidin-3-yl]-1,3,4-thiadiazole-2-carboxamide hydrochloride] and `CN(CCC(C)(C)O)Cc1ccc(N2C[C@H](NC(=O)c3nnc(CCc4ccc(Cl)cc4)s3)CC2=O)cc1` [Compound F171, 5-[2-(4-chlorophenyl)ethyl]-N-[(3R)-1-[4-[[(3-hydroxy-3-methyl-butyl)-methyl-amino]methyl]phenyl]-5-oxo-pyrrolidin-3-yl]-1,3,4-thiadiazole-2-carboxamide] are the same in IC50: 58 nM for the first, 58 nM for the second.

`O=C(N[C@@H]1CC(=O)N(c2ccc(CN3CCOCC3)cc2)C1)c1nnc(CCc2ccc(Cl)cc2)s1` [Compound F130, 5-[2-(4-chlorophenyl)ethyl]-N-[(3R)-1-[4-(morpholinomethyl)phenyl]-5-oxo-pyrrolidine-3-yl]-1,3,4-thiadiazole-2-carboxamide] and `O=C(NC1CC(=O)N(c2ccc(CN3CCCOCC3)cc2)C1)c1nnc(CCc2ccc(Cl)cc2)s1` (stereo not drawn) [Compound F129, 5-[2-(4-chlorophenyl)ethyl]-N-[1-[4-(1,4-oxazepan-4-ylmethyl)phenyl]-5-oxo-pyrrolidin-3-yl]-1,3,4-thiadiazole-2-carboxamide] are the same in IC50: 2 nM for the first, 2 nM for the second.

Going from `O=C(NC1CC(=O)N(c2ccc(CN3CCCCC3)cc2)C1)c1cc(CCc2ccccc2)on1` (stereo not drawn) [Compound F175, N-[5-oxo-1-[4-(1-piperidylmethyl)phenyl]pyrrolidin-3-yl]-5-(2-phenylethyl)isoxazole-3-carboxamide] to `O=C(N[C@@H]1CC(=O)N(c2ccc(CN3CCCCC3)cc2)C1)c1cc(CCc2ccc(F)cc2)on1` [Compound F173, 5-[2-(4-fluorophenyl)ethyl]-N-[(3R)-5-oxo-1-[4-(1-piperidylmethyl)phenyl]pyrrolidin-3-yl]isoxazole-3-carboxamide], the IC50 falls from 47 nM to 24 nM (2-fold). The second is the more potent here.

Going from `O=C(Nc1nnc(CCC2CCCC2)s1)C1CC(=O)N(c2ccc(CN3CCC(F)(F)CC3)cc2)C1` (stereo not drawn) [Compound F123, N-[5-(2-cyclopentylethyl)-1,3,4-thiadiazol-2-yl]-1-[4-[(4,4-difluoro-1-piperidyl)methyl]phenyl]-5-oxo-pyrrolidine-3-carboxamide] to `O=C(Nc1nnc(CCC2CCCCC2)s1)C1CC(=O)N(c2ccc(CN3CCCCC3)cc2)C1` (stereo not drawn) [Compound F106, N-[5-(2-cyclohexylethyl)-1,3,4-thiadiazol-2-yl]-5-oxo-1-[4-(1-piperidylmethyl)phenyl] pyrrolidine-3-carboxamide], the IC50 falls from 5 nM to 3 nM (1.7-fold). The second is the more potent here.

Compared with `O=C(Nc1nnc(CCc2ccc(F)cc2)s1)[C@H]1CC(=O)N(c2ccc(CN3CCOCC3)cc2)C1` [Compound F108, (3S)-N-[5-[2-(4-fluorophenyl)ethyl]-1,3,4-thiadiazol-2-yl]-1-[4-(morpholinomethyl)phenyl]-5-oxo-pyrrolidine-3-carboxamide], `COc1ccc(CCc2nnc(NC(=O)C3CC(=O)N(c4ccc(CN5CCOCC5)cc4)C3)s2)cc1` (stereo not drawn) [Compound F150, N-[5-[2-(4-methoxyphenyl)ethyl]-1,3,4-thiadiazol-2-yl]-1-[4-(morpholinomethyl)phenyl]-5-oxo-pyrrolidine-3-carboxamide] is 2.7-fold higher in IC50: 3 nM for the first, 8 nM for the second.

First: O=C(Nc1nnc(CCC2CCCO2)s1)[C@H]1CC(=O)N(c2ccc(CN3CCCCC3)cc2)C1 (stereo partly drawn) [Compound F191, (3S)-5-oxo-1-[4-(1-piperidylmethyl)phenyl]-N-[5-(2-tetrahydrofuran-2-ylethyl)-1,3,4-thiadiazol-2-yl]pyrrolidine-3-carboxamide]
Second: O=C(Nc1nnc(CCC2CCCCO2)s1)[C@H]1CC(=O)N(c2ccc(CN3CCOCC3)cc2)C1 (stereo partly drawn) [Compound F165, (3S)-1-[4-(morpholinomethyl)phenyl]-5-oxo-N-[5-(2-tetrahydropyran-2-ylethyl)-1,3,4-thiadiazol-2-yl]pyrrolidine-3-carboxamide]
The IC50 of the first is 6.5-fold higher: 615 nM for the first, 95 nM for the second.

First: O=C1CC(NCc2nnc(CCc3ccc(Cl)cc3)s2)CN1c1ccc(CN2CCOCC2)cc1 (stereo not drawn) [Compound F183, 4-({5-[2-(4-Chloro-phenyl)-ethyl]-[1,3,4]thiadiazol-2-ylmethyl}-amino)-1-(4-morpholin-4-ylmethyl-phenyl)-pyrrolidin-2-one; hydrochloride]
Second: CC1CCN(Cc2ccc(N3C[C@@H](NC(=O)c4nnc(CCc5ccc(Cl)cc5)s4)CC3=O)cc2)CC1 [Compound F137, 1-{4-[(S)-4-({5-[2-(4-chloro-phenyl)-ethyl]-[1,3,4]thiadiazole-2-carbonyl}-amino)-2-oxo-pyrrolidin-1-yl]-benzyl}-4-methyl-piperidine hydrochloride]
The IC50 of the first is 5.8-fold higher: 23 nM for the first, 4 nM for the second. The second is the more potent here.

Compared with `O=C(NC1CC(=O)N(c2ccc(CN3CCCCC3)cc2)C1)c1nnc(CCc2ccco2)s1` (stereo not drawn) [Compound F195, 5-[2-(2-furyl)ethyl]-N-[5-oxo-1-[4-(1-piperidylmethyl)phenyl]pyrrolidin-3-yl]-1,3,4-thiadiazole-2-carboxamide], `O=C(NC1CC(=O)N(c2ccc(CN3CCCCC3)cc2)C1)c1nnc(NCc2ccc(Cl)cc2)s1` (stereo not drawn) [Compound F196, 5-[(4-chlorophenyl)methyl-amino]-N-[5-oxo-1-[4-(1-piperidylmethyl)phenyl]pyrrolidin-3-yl]-1,3,4-thiadiazole-2-carboxamide] is 7.4-fold lower in IC50: 766 nM for the first, 103 nM for the second. The second is the more potent here.

Going from `COCCN(C)Cc1ccc(N2CC(NC(=O)c3nnc(CCc4ccc(Cl)cc4)s3)CC2=O)cc1` (stereo not drawn) [Compound F142, 5-[2-(4-chlorophenyl)ethyl]-N-[1-[4-[[2-methoxyethyl(methyl)amino]methyl]phenyl]-5-oxo-pyrrolidin-3-yl]-1,3,4-thiadiazole-2-carboxamide] to `CCN(CC)Cc1ccc(N2CC(C(=O)Nc3nnc(CCc4ccc(Cl)cc4)s3)CC2=O)cc1` (stereo not drawn) [Compound F98, N-[5-[2-(4-chlorophenyl)ethyl]-1,3,4-thiadiazol-2-yl]-1-[4-(diethylaminomethyl)phenyl]-5-oxo-pyrrolidine-3-carboxamide], the IC50 falls from 9 nM to 2 nM (4.5-fold).

Going from `O=C(NC1CC(=O)N(c2ccc(CN3CCCCC3)cc2)C1)c1nnc(CCc2ccccc2)o1` (stereo not drawn) [Compound F194, N-[5-oxo-1-[4-(1-piperidylmethyl)phenyl]pyrrolidin-3-yl]-5-(2-phenylethyl)-1,3,4-oxadiazole-2-carboxamide] to `O=C(Nc1cc(CCc2ccccc2)[nH]n1)C1CC(=O)N(c2ccc(CN3CCOCC3)cc2)C1` (stereo not drawn) [Compound F179, 1-[4-(morpholinomethyl)phenyl]-5-oxo-N-[5-(2-phenylethyl)-1H-pyrazol-3-yl]pyrrolidine-3-carboxamide], the IC50 falls from 649 nM to 38 nM (17-fold).

Compared with `O=C(Nc1cc(CCc2ccc(Cl)cc2)on1)C1CC(=O)N(c2ccc(CN3CCCCC3)cc2)C1` (stereo in doubt) [Compound F146, (3S)-N-[5-[2-(4-chlorophenyyl)ethyl]isoxazol-3-yl]-5-oxo-1-[4-(1-piperidylmethyl)phenyl] pyrrolidine-3-carboxamide], `COc1ccc(CCc2cc(NC(=O)C3CC(=O)N(c4ccc(CN5CCOCC5)cc4)C3)on2)cc1` (stereo not drawn) [Compound F199, N-[3-[2-(4-methoxyphenyl)ethyl]isoxazol-5-yl]-1-[4-(morpholinomethyl)phenyl]-5-oxo-pyrrolidine-3-carboxamide] is 290-fold higher in IC50: 1 nM for the first, 293 nM for the second. The first is the more potent here.

First: CN(Cc1ccc(N2C[C@@H](C(=O)Nc3nnc(CCc4ccc(Cl)cc4)s3)CC2=O)cc1)C1COC1 [Compound F88, (3S)-N-[5-[2-(4-chlorophenyl)ethyl]-1,3,4-thiadiazol-2-yl]-1-[4-[[methyl(oxetan-3-yl)amino]methyl]phenyl]-5-oxo-pyrrolidine-3-carboxamide]
Second: O=C(Nc1nnc(CCC2CCOCC2)s1)C1CC(=O)N(c2ccc(CN3CCCCC3)cc2)C1 (stereo not drawn) [Compound F189, 5-oxo-1-[4-(1-piperidylmethyl)phenyl]-N-[5-(2-tetrahydropyran-4-ylethyl)-1,3,4-thiadiazol-2-yl]pyrrolidine-3-carboxamide]
The IC50 of the first is 490-fold lower: 1 nM for the first, 487 nM for the second.

In the case of `O=C(Nc1nnc(CCC2CCOCC2)s1)[C@H]1CC(=O)N(c2ccc(CN3CCCCC3)cc2)C1` [Compound F190, (3S)-5-oxo-1-[4-(1-piperidylmethyl)phenyl]-N-[5-(2-tetrahydropyran-4-ylethyl)-1,3,4-thiadiazol-2-yl]pyrrolidine-3-carboxamide], the IC50 is reported as 526 nM.
